According to ChEMBL document CHEMBL1862790, “Optimisation of fenarimol series for the treatment of Chagas disease”:

Columns and labels:
[1] = DNDI: Cytotoxicity against L-6 rat myoblasts from skeletal muscle cells; conditions: L6 rat skeletal muscle myoblast cells
Trypanosoma cruzi [2] = experiment: microbe, parasite or virus in culture; type: functional, organism-based, Tulahuen LacZ, Clone C4; conditions: Trypanosoma cruzi, Tulahuen LacZ, Clone C4
Trypanosoma cruzi [3] = experiment: microbe, parasite or virus in culture; type: functional, Tulahuen LacZ, Clone C4; conditions: Trypanosoma cruzi, Tulahuen LacZ, Clone C4

| Compound | IC50 ([1]; IC50) [µM] | IC50 (Trypanosoma cruzi [2]) [µM] | IC90 (Trypanosoma cruzi [3]) [µM] | IC50 [1] [µM] |
| --- | --- | --- | --- | --- |
| O=S(=O)(c1ccc(Cl)cc1)N1CCN(C(c2cncnc2)c2ccc(Cl)cc2F)CC1 (stereo unspecified) | > 100 | 0.06 | 0.11 |  |
| O=S(=O)(C1CCCCC1)N1CCC(NC(c2cnccn2)c2ccc(F)cc2F)CC1 (stereo unspecified) | > 100 | 0.42 | 0.92 |  |
| O=C(NC1CCCC1)c1cccc(C(O)(c2ccc(Cl)cc2)c2cccnc2)c1 (stereo unspecified) | 60.8 | 0.15 | 0.32 |  |
| O=S(=O)(NC1CCN(C(c2cnccn2)c2ccc(F)cc2F)CC1)c1ccccc1 (stereo unspecified) | 67.7 | 0.47 | 0.88 |  |
| O=C(NC1CCN(C(c2cnccn2)c2ccc(F)cc2F)CC1)c1ccc(Cl)cc1 (stereo unspecified) | 66.9 | 0.27 | 0.76 |  |
| O=C(NC1CCN(C(c2ccc(C(F)(F)F)cc2)c2cnccn2)CC1)c1ccc(C(F)(F)F)cc1 (stereo unspecified) | 57.4 | 0.1 | 0.3 |  |
| O=C(c1ccc(C(F)(F)F)cc1)N1CCC(NC(c2ccc(C(F)(F)F)cc2)c2cnccn2)CC1 (stereo unspecified) | 39.9 | 0.082 | 0.27 |  |
| O=S(=O)(c1ccc(C(F)(F)F)cc1)N1CCN(C(c2ccc(Cl)cc2)c2cccnc2)CC1 (stereo unspecified) | 51.4 | 0.055 | 0.18 |  |
| O=S(=O)(C1CCCCC1)N1CCN(C(c2cncnc2)c2ccc(Cl)cc2F)CC1 (stereo unspecified) | 61.3 | 0.018 | 0.038 |  |
| CS(=O)(=O)N1CCC(NC(c2cnccn2)c2ccc(F)cc2F)CC1 (stereo unspecified) | > 100 | 0.68 | > 1 |  |
| O=S(=O)(c1ccc(C(F)(F)F)cc1)N1CCC(NC(c2cnccn2)c2ccc(F)cc2F)CC1 (stereo unspecified) | 62.7 | 0.36 | 0.82 |  |
| O=S(=O)(Cc1ccccc1)N1CCN(C(c2cncnc2)c2ccc(Cl)cc2F)CC1 (stereo unspecified) | 62.4 | 0.072 | 0.18 |  |
| CC(C)c1ccc(S(=O)(=O)N2CCN(C(c3cncnc3)c3ccc(Cl)cc3F)CC2)cc1 (stereo unspecified) | > 100 | 0.018 | 0.036 |  |
| CC(C)CC(=O)NC1CCN(C(c2cnccn2)c2ccc(F)cc2F)CC1 (stereo unspecified) | > 100 | > 1 | > 1 |  |
| O=S(=O)(c1ccc(C(F)(F)F)cc1)N1CCC(NC(c2ccc(C(F)(F)F)cc2)c2cnccn2)CC1 (stereo unspecified) | 40.9 | 0.13 | 0.29 |  |
| O=C(NC1CCN(C(c2cnccn2)c2ccc(F)cc2F)CC1)c1ccc(C(F)(F)F)cc1 (stereo unspecified) | 63.6 | 0.46 | 0.9 |  |
| CC(C)CS(=O)(=O)N1CCC(NC(c2cnccn2)c2ccc(F)cc2F)CC1 (stereo unspecified) | > 100 | 0.56 | 0.96 |  |
| CC(C)c1ccc(S(=O)(=O)N2CCC(NC(c3cnccn3)c3ccc(F)cc3F)CC2)cc1 (stereo unspecified) | 21.9 | 0.21 | 0.55 |  |
| O=C(NC1CCCCC1)c1cccc(C(O)(c2ccc(Cl)cc2)c2cccnc2)c1 (stereo unspecified) | 52.3 | 0.06 | 0.21 |  |
| CC(=O)NC1CCN(C(c2cnccn2)c2ccc(F)cc2F)CC1 (stereo unspecified) | > 100 | > 1 | > 1 |  |
| CC(C)CNC(=O)c1cccc(C(O)(c2ccc(Cl)cc2)c2cccnc2)c1 (stereo unspecified) | 60.5 | 0.098 | 0.3 |  |
| CON(C)C(=O)c1cccc(C(O)(c2ccc(Cl)cc2)c2cccnc2)c1 (stereo unspecified) | > 100 | 0.038 | 0.13 |  |
| O=S(=O)(c1ccc(Cl)cc1)N1CCC(NC(c2cnccn2)c2ccc(F)cc2F)CC1 (stereo unspecified) | 77.9 | 0.53 | 0.9 |  |

| Compound | IC50 ([1]; IC50) [µM] | IC50 (Trypanosoma cruzi [2]) [µM] | IC90 (Trypanosoma cruzi [3]) [µM] | IC50 [1] [µM] |
| --- | --- | --- | --- | --- |
| O=C(c1ccccc1)N1CCN(C(c2cncnc2)c2ccc(Cl)cc2F)CC1 (stereo unspecified) | > 100 | 0.22 | 0.58 |  |
| O=C(Cc1ccccc1)N1CCN(C(c2ccc(Cl)cc2)c2cncnc2)CC1 (stereo unspecified) |  | 0.5 | 0.85 | 69.5 |
| CNC(=O)c1cccc(C(O)(c2ccc(Cl)cc2)c2cccnc2)c1 (stereo unspecified) | > 100 | 0.59 | 0.995 |  |
| CN(C)C(=O)N1CCN(C(c2cncnc2)c2ccc(Cl)cc2F)CC1 (stereo unspecified) | > 100 | 0.48 | 0.94 |  |
| CCC(=O)NC1CCN(C(c2cnccn2)c2ccc(F)cc2F)CC1 (stereo unspecified) | > 100 | > 1 | > 1 |  |
| CC(C)S(=O)(=O)N1CCN(C(c2ccc(Cl)cc2)c2cccnc2)CC1 (stereo unspecified) | > 100 | 0.028 | 0.088 |  |
| CC(C)S(=O)(=O)N1CCC(NC(c2cnccn2)c2ccc(F)cc2F)CC1 (stereo unspecified) | > 100 | 0.34 | 0.79 |  |
| O=C(NC1CCN(C(c2cnccn2)c2ccc(F)cc2F)CC1)c1ccccc1 (stereo unspecified) | > 100 | 0.55 | 0.93 |  |
| O=C(C1CC1)N1CCC(NC(c2cnccn2)c2ccc(F)cc2F)CC1 (stereo unspecified) | > 100 | 1.38 | 3.86 |  |
| O=C(NC1CCN(C(c2cnccn2)c2ccc(F)cc2F)CC1)C1CC1 (stereo unspecified) | > 100 | > 1 | > 1 |  |
| CN(C)C(=O)N1CCN(C(c2ccc(Cl)cc2)c2cncnc2)CC1 (stereo unspecified) | > 100 | 0.62 | > 1 |  |
| O=C(Cc1ccccc1)NC1CCN(C(c2cnccn2)c2ccc(F)cc2F)CC1 (stereo unspecified) | > 100 | 0.7 | > 1 |  |
| CCS(=O)(=O)N1CCC(NC(c2ccc(C(F)(F)F)cc2)c2cnccn2)CC1 (stereo unspecified) | > 100 | 0.49 | 0.88 |  |
| O=S(=O)(Cc1ccccc1)N1CCN(C(c2ccc(Cl)cc2)c2cccnc2)CC1 (stereo unspecified) | 57.7 | 0.032 | 0.14 |  |
| CC(C)C(=O)N1CCC(NC(c2ccc(C(F)(F)F)cc2)c2cnccn2)CC1 (stereo unspecified) | > 100 | 0.23 | 0.49 |  |
| CC(C)S(=O)(=O)NC1CCN(C(c2ccc(C(F)(F)F)cc2)c2cnccn2)CC1 (stereo unspecified) | > 100 | 0.56 | 0.94 |  |
| O=C(C1CCCCC1)N1CCN(C(c2cncnc2)c2ccc(Cl)cc2F)CC1 (stereo unspecified) | > 100 | 0.15 | 0.3 |  |
| CN(C)C(=O)N1CCC(NC(c2cnccn2)c2ccc(F)cc2F)CC1 (stereo unspecified) | > 100 | > 1 | > 1 |  |
| O=C(c1ccc(C(F)(F)F)cc1)N1CCN(C(c2ccc(Cl)cc2)c2cncnc2)CC1 (stereo unspecified) | 54.1 | 0.15 | 0.32 |  |
| O=C(Cc1ccccc1)N1CCC(NC(c2cnccn2)c2ccc(F)cc2F)CC1 (stereo unspecified) | > 100 | 0.36 | 0.82 |  |
| CC(C)CC(=O)N1CCN(C(c2ccc(Cl)cc2)c2cncnc2)CC1 (stereo unspecified) | > 100 | 0.43 | 0.91 |  |
| CC(C)CS(=O)(=O)N1CCN(C(c2ccc(Cl)cc2)c2cncnc2)CC1 (stereo unspecified) | 92.7 | 0.062 | 0.2 |  |
| CCC(=O)N1CCC(NC(c2ccc(C(F)(F)F)cc2)c2cnccn2)CC1 (stereo unspecified) | > 100 | > 1 | > 1 |  |

| Compound | IC50 ([1]; IC50) [µM] | IC50 (Trypanosoma cruzi [2]) [µM] | IC90 (Trypanosoma cruzi [3]) [µM] | IC50 [1] [µM] |
| --- | --- | --- | --- | --- |
| CC(C)N(C(=O)c1cccc(C(O)(c2ccc(Cl)cc2)c2cccnc2)c1)C(C)C (stereo unspecified) | 54.7 | 0.014 | 0.056 |  |
| CN(C)C(=O)N1CCC(NC(c2ccc(C(F)(F)F)cc2)c2cnccn2)CC1 (stereo unspecified) | > 100 | 0.5 | 0.92 |  |
| O=C(NCCN1CCOCC1)c1cccc(C(O)(c2ccc(Cl)cc2)c2cccnc2)c1 (stereo unspecified) | > 100 | 0.5 | 0.95 |  |
| O=C(NC1CCN(C(c2ccc(C(F)(F)F)cc2)c2cnccn2)CC1)c1ccc(Cl)cc1 (stereo unspecified) | 52.9 | 0.078 | 0.23 |  |
| CCC(=O)N1CCC(NC(c2cnccn2)c2ccc(F)cc2F)CC1 (stereo unspecified) | > 100 | > 1 | > 1 |  |
| O=C(c1cccc(C(O)(c2ccc(Cl)cc2)c2cccnc2)c1)N1CCOCC1 (stereo unspecified) | > 100 | 0.034 | 0.12 |  |
| CC(C)c1ccc(S(=O)(=O)N2CCN(C(c3ccc(Cl)cc3)c3cncnc3)CC2)cc1 (stereo unspecified) | 46.1 | 0.024 | 0.078 |  |
| O=C(Cc1ccccc1)NC1CCN(C(c2ccc(C(F)(F)F)cc2)c2cnccn2)CC1 (stereo unspecified) | > 100 | 0.19 | 0.37 |  |
| O=C(NC1CCN(C(c2cnccn2)c2ccc(F)cc2F)CC1)C1CCCCC1 (stereo unspecified) | > 100 | 0.8 | > 1 |  |
| O=C(c1ccccc1)N1CCN(C(c2ccc(Cl)cc2)c2cncnc2)CC1 (stereo unspecified) | 75.5 | 0.5 | 0.95 |  |
| CCC(=O)N1CCN(C(c2cncnc2)c2ccc(Cl)cc2F)CC1 (stereo unspecified) | > 100 | 0.44 | 0.86 |  |
| O=S(=O)(c1ccc(C(F)(F)F)cc1)N1CCN(C(c2cncnc2)c2ccc(Cl)cc2F)CC1 (stereo unspecified) | 74.7 | 0.076 | 0.22 |  |
| O=S(=O)(NC1CCN(C(c2ccc(C(F)(F)F)cc2)c2cnccn2)CC1)C1CCCCC1 (stereo unspecified) | 57.9 | 0.28 | 0.78 |  |
| O=S(=O)(Cc1ccccc1)N1CCC(NC(c2cnccn2)c2ccc(F)cc2F)CC1 (stereo unspecified) | > 100 | 0.19 | 0.4 |  |
| O=C(c1ccc(Cl)cc1)N1CCC(NC(c2cnccn2)c2ccc(F)cc2F)CC1 (stereo unspecified) | > 100 | 0.26 | 0.7 |  |
| CC(C)CC(=O)NC1CCN(C(c2ccc(C(F)(F)F)cc2)c2cnccn2)CC1 (stereo unspecified) | > 100 | 0.28 | 0.7 |  |
| CC(C)c1ccc(S(=O)(=O)N2CCC(NC(c3ccc(C(F)(F)F)cc3)c3cnccn3)CC2)cc1 (stereo unspecified) | 22 | 0.1 | 0.27 |  |
| CC(C)S(=O)(=O)N1CCC(NC(c2ccc(C(F)(F)F)cc2)c2cnccn2)CC1 (stereo unspecified) | > 100 | 0.22 | 0.57 |  |
| CC(C)C(=O)NC1CCN(C(c2ccc(C(F)(F)F)cc2)c2cnccn2)CC1 (stereo unspecified) | > 100 | 0.56 | 0.94 |  |
| CC(C)S(=O)(=O)N1CCN(C(c2cncnc2)c2ccc(Cl)cc2F)CC1 (stereo unspecified) | > 100 | 0.12 | 0.33 |  |
| CN(C)C(=O)NC1CCN(C(c2cnccn2)c2ccc(F)cc2F)CC1 (stereo unspecified) | > 100 | > 1 | > 1 |  |
